Measured values as given in patent US9212163B2, “Pesticidal compositions and processes related thereto” (Dow AgroSciences LLC, priority 2012, dated 2015).

System: Beet Armyworm (BAW) (Spodoptera exigua)
Test: Bioassay on Beet Armyworm (BAW), 128-well diet tray assay
Format: in vivo
Conditions: Table 3: Assay Results Part 1
Procedure: Certain molecules disclosed in this document were tested against BAW, CEW and CL using procedures described in the following examples. In the reporting of the results, the “BAW & CEW & CL Rating Table” was used (See Table Section).
Bioassays on BAW (Spodoptera exigua)
Bioassays on BAW were conducted using a 128-well diet tray assay. One to five second instar BAW larvae were placed in each well (3 mL) of the diet tray that had been previously filled with 1 mL of artificial diet to which 50 μg/cm^2 of the test compound (dissolved in 50 μL of 90:10 acetone-water mixture) had been applied (to each of eight wells) and then allowed to dry. Trays were covered with a clear self-adhesive cover, and held at 25° C., 14:10 light-dark for five to seven days. Percent mortality was recorded for the larvae in each well; activity in the eight wells was then averaged. The results are indicated in the tables entitled “Table 3: Assay Results Part 1” and “Table 4: Assay Results Part 2” (See Table Section).

SMILES | BAW Rating
Cc1cc(/C=C/C(c2cc(Cl)cc(Cl)c2)C(F)(F)F)ccc1C(=O)NCc1ccc(Cl)nc1 (stereo not drawn) [AC7] | A (50-100)
Cc1cc(/C=C/C(c2cc(Cl)cc(Cl)c2)C(F)(F)F)ccc1C(=O)NCc1ccccc1F (stereo not drawn) [AC9] | A (50-100)
Cc1cc(/C=C/C(c2cc(Cl)cc(Cl)c2)C(F)(F)F)ccc1C(=O)NC1CSC1 (stereo not drawn) [AC10] | A (50-100)
Cc1cc(/C=C/C(c2cc(Cl)cc(Cl)c2)C(F)(F)F)ccc1C(=O)NCc1ccccc1 (stereo not drawn) [AC11] | A (50-100)
Cc1cc(/C=C/C(c2cc(Cl)cc(Cl)c2)C(F)(F)F)ccc1C(=O)NCc1ccccn1 (stereo not drawn) [AC12] | A (50-100)
Cc1cc(/C=C/C(c2cc(Cl)cc(Cl)c2)C(F)(F)F)ccc1C(=O)NC1CS(=O)(=O)C1 (stereo not drawn) [AC13] | A (50-100)
Cc1cc(/C=C/C(c2cc(Cl)cc(Cl)c2)C(F)(F)F)ccc1C(=O)NCc1cnc(Cl)s1 (stereo not drawn) [AC15] | A (50-100)
Cc1cc(/C=C/C(c2cc(Cl)cc(Cl)c2)C(F)(F)F)ccc1C(=O)NC(C)(C)c1ccccn1 (stereo not drawn) [AC16] | A (50-100)
Cc1cc(/C=C/C(c2cc(Cl)cc(Cl)c2)C(F)(F)F)ccc1C(=O)NNc1ccccc1F (stereo not drawn) [AC17] | A (50-100)
Cc1cc(/C=C/C(c2cc(Cl)cc(Cl)c2)C(F)(F)F)ccc1C(=O)NCc1ncccn1 (stereo not drawn) [AC18] | A (50-100)
Cc1cc(/C=C/C(c2cc(Cl)cc(Cl)c2)C(F)(F)F)ccc1C(=O)NCc1ccoc1 (stereo not drawn) [AC20] | A (50-100)
Cc1cc(/C=C/C(c2cc(Cl)c(Cl)c(Cl)c2)C(F)(F)F)ccc1C(=O)NCc1ccc(Cl)nc1 (stereo not drawn) [AC22] | A (50-100)
Cc1cc(/C=C/C(c2cc(Cl)c(Cl)c(Cl)c2)C(F)(F)F)ccc1C(=O)NC1CSC1 (stereo not drawn) [AC23] | A (50-100)
Cc1cc(/C=C/C(c2cc(Cl)c(Cl)c(Cl)c2)C(F)(F)F)ccc1C(=O)NCc1cnc(Cl)s1 (stereo not drawn) [AC26] | A (50-100)
Cc1cc(/C=C/C(c2cc(Cl)c(Cl)c(Cl)c2)C(F)(F)F)ccc1C(=O)NC(C)(C)c1ccccn1 (stereo not drawn) [AC27] | A (50-100)
O=C(NCc1ccc(Cl)nc1)c1ccc(/C=C/C(c2cc(Cl)c(Cl)c(Cl)c2)C(F)(F)F)cc1Cl (stereo not drawn) [AC28] | A (50-100)
O=C(NC1CSC1)c1ccc(/C=C/C(c2cc(Cl)c(Cl)c(Cl)c2)C(F)(F)F)cc1Cl (stereo not drawn) [AC29] | A (50-100)
O=C(NC1CS(=O)(=O)C1)c1ccc(/C=C/C(c2cc(Cl)c(Cl)c(Cl)c2)C(F)(F)F)cc1Cl (stereo not drawn) [AC30] | A (50-100)
O=C(NCc1ccc(Cl)nc1)c1ccc(/C=C/C(c2cc(Cl)c(Cl)c(Cl)c2)C(F)(F)F)cc1Br (stereo not drawn) [AC31] | A (50-100)
O=C(NC1CSC1)c1ccc(/C=C/C(c2cc(Cl)c(Cl)c(Cl)c2)C(F)(F)F)cc1Br (stereo not drawn) [AC32] | A (50-100)
O=C(NC1CS(=O)(=O)C1)c1ccc(/C=C/C(c2cc(Cl)c(Cl)c(Cl)c2)C(F)(F)F)cc1Br (stereo not drawn) [AC33] | A (50-100)

SMILES | BAW Rating
O=C(NC1CSC1)c1ccc(/C=C/C(c2cc(Cl)c(Cl)c(Cl)c2)C(F)(F)F)cc1C(F)(F)F (stereo not drawn) [AC34] | A (50-100)
O=C(NC1CS(=O)(=O)C1)c1ccc(/C=C/C(c2cc(Cl)c(Cl)c(Cl)c2)C(F)(F)F)cc1C(F)(F)F (stereo not drawn) [AC35] | A (50-100)
O=C(NCc1ccc(Cl)nc1)c1ccc(/C=C/C(c2cc(Cl)c(Cl)c(Cl)c2)C(F)(F)F)cc1C(F)(F)F (stereo not drawn) [AC36] | A (50-100)
Cc1cc(/C=C/C(c2ccc(Cl)c(Cl)c2)C(F)(F)F)ccc1C(=O)NCc1ccc(Cl)nc1 (stereo not drawn) [AC37] | A (50-100)
Cc1cc(/C=C/C(c2cc(Cl)c(F)c(Cl)c2)C(F)(F)F)ccc1C(=O)NCc1ccc(Cl)nc1 (stereo not drawn) [AC38] | A (50-100)
Cc1cc(/C=C/C(c2cc(Cl)cc(Cl)c2)C(F)(F)F)ccc1C(=O)NCc1cncnc1 (stereo not drawn) [AC39, 4-((E)-3-(3,5-Dichlorophenyl)-4,4,4-trifluorobut-1-enyl)-2-methyl-N-((pyrimidin-5-yl)methyl)benzamide] | A (50-100)
Cc1cc(/C=C/C(c2cc(Cl)cc(Cl)c2)C(F)(F)F)ccc1C(=O)NCC(=O)NC1CC1 (stereo not drawn) [AC40] | A (50-100)
Cc1cc(/C=C/C(c2cc(Cl)cc(Cl)c2)C(F)(F)F)ccc1C(=O)NCC(=O)NC1CSC1 (stereo not drawn) [AC41] | A (50-100)
Cc1cc(/C=C/C(c2cc(Cl)cc(Cl)c2)C(F)(F)F)ccc1C(=O)NCc1nc2ccccc2s1 (stereo not drawn) [AC42] | A (50-100)
Cc1cc(/C=C/C(c2cc(Cl)cc(Cl)c2)C(F)(F)F)ccc1C(=O)NCc1cnccn1 (stereo not drawn) [AC43] | A (50-100)
Cc1cc(/C=C/C(c2cc(Cl)cc(Cl)c2)C(F)(F)F)ccc1C(=O)NN(C)c1ccccc1F (stereo not drawn) [AC45] | A (50-100)
Cc1cc(/C=C/C(c2cc(Cl)cc(Cl)c2)C(F)(F)F)ccc1C(=O)NCc1ccc(Cl)cc1 (stereo not drawn) [AC48] | A (50-100)
O=C(NCc1ccc(Cl)nc1)c1ccc(/C=C/C(c2cc(Cl)cc(Cl)c2)C(F)(F)F)cc1F (stereo not drawn) [AC49] | A (50-100)
Cc1cc(/C=C/C(c2cc(Cl)cc(Cl)c2)C(F)(F)F)ccc1C(=O)NCc1nccn1C (stereo not drawn) [AC50] | A (50-100)
Cc1cc(/C=C/C(c2cc(Cl)cc(Cl)c2)C(F)(F)F)ccc1C(=O)NCC(=O)N(C)CC(F)(F)F (stereo not drawn) [AC51] | A (50-100)
Cc1cc(/C=C/C(c2cc(Cl)c(F)c(Cl)c2)C(F)(F)F)ccc1C(=O)NC1CCOCC1 (stereo not drawn) [AC52] | A (50-100)
Cc1cc(/C=C/C(c2cc(Cl)c(F)c(Cl)c2)C(F)(F)F)ccc1C(=O)NCc1ccc(Cl)cn1 (stereo not drawn) [AC53] | A (50-100)
Cc1cc(/C=C/C(c2cc(Cl)c(F)c(Cl)c2)C(F)(F)F)ccc1C(=O)NCc1ccnc(Cl)c1 (stereo not drawn) [AC54] | A (50-100)
CC(C)(C)OC(=O)CNC(=O)c1ccc(/C=C/C(c2cc(Cl)c(Cl)c(Cl)c2)C(F)(F)F)cc1Br (stereo not drawn) [AC58] | A (50-100)
Cc1cc(/C=C/C(c2cc(Cl)cc(Cl)c2)C(F)(F)F)ccc1C(=O)Nc1ccc(Cl)nc1 (stereo not drawn) [AC59] | A (50-100)
O=C(NC1CSC1)c1ccc(/C=C/C(c2cc(Cl)cc(Cl)c2)C(F)(F)F)cc1F (stereo not drawn) [AC61] | A (50-100)

SMILES | BAW Rating
O=C(CNC(=O)c1ccc(/C=C/C(c2cc(Cl)cc(Cl)c2)C(F)(F)F)cc1F)NCC(F)(F)F (stereo not drawn) [AC62] | A (50-100)
O=C(NCc1ccc(Cl)nc1)c1ccc(/C=C/C(c2cc(Cl)c(F)c(Cl)c2)C(F)(F)F)cc1Br (stereo not drawn) [AC63] | A (50-100)
O=C(CNC(=O)c1ccc(/C=C/C(c2cc(Cl)c(Cl)c(Cl)c2)C(F)(F)F)cc1Cl)NCC(F)(F)F (stereo not drawn) [AC64, (E)-2-Chloro-N-(2-oxo-2-((2,2,2-trifluoroethyl)amino)ethyl)-4-(4,4,4-trifluoro-3-(3,4,5-trichlorophenyl)but-1-en-1-yl)benzamide] | A (50-100)
O=C(NCc1ccc(Cl)nc1)c1ccc(/C=C/C(c2cc(Cl)c(F)c(Cl)c2)C(F)(F)F)cc1F (stereo not drawn) [AC65] | A (50-100)
O=C(CNC(=O)c1ccc(/C=C/C(c2cc(Cl)c(Cl)c(Cl)c2)C(F)(F)F)cc1Br)NCC(F)(F)F (stereo not drawn) [AC66] | A (50-100)
O=C(NC1CSC1)c1ccc(/C=C/C(c2cc(Cl)c(F)c(Cl)c2)C(F)(F)F)cc1F (stereo not drawn) [AC67] | A (50-100)
O=C(CNC(=O)c1ccc(/C=C/C(c2cc(Cl)c(F)c(Cl)c2)C(F)(F)F)cc1F)NCC(F)(F)F (stereo not drawn) [AC68] | A (50-100)
Cc1cc(/C=C/C(c2cc(Cl)c(F)c(Cl)c2)C(F)(F)F)ccc1C(=O)NCC(=O)NCC(F)(F)F (stereo not drawn) [AC69] | A (50-100)
COc1cc(/C=C/C(c2cc(Cl)c(F)c(Cl)c2)C(F)(F)F)ccc1C(=O)NC1CSC1 (stereo not drawn) [AC71] | A (50-100)
CCc1cc(/C=C/C(c2cc(Cl)c(F)c(Cl)c2)C(F)(F)F)ccc1C(=O)NCc1ccc(Cl)nc1 (stereo not drawn) [AC72] | A (50-100)
O=C(NCc1ccc(C(F)(F)F)nc1)c1ccc(/C=C/C(c2cc(Cl)c(Cl)c(Cl)c2)C(F)(F)F)cc1Br (stereo not drawn) [AC75] | A (50-100)
Cc1cc(/C=C/C(c2cc(Cl)c(F)c(Cl)c2)C(F)(F)F)ccc1C(=O)NCc1cc(Cl)ccn1 (stereo not drawn) [AC77] | A (50-100)
Cc1cc(/C=C/C(c2cc(Cl)c(Cl)c(Cl)c2)C(F)(F)F)ccc1C(=O)NCC(=O)NCC(F)(F)F (stereo not drawn) [AC78] | A (50-100)
O=C(CNC(=O)c1ccc(/C=C/C(c2cc(Cl)c(F)c(Cl)c2)C(F)(F)F)cc1Br)NCC(F)(F)F (stereo not drawn) [AC79, (E)-2-Bromo-4-(3-(3,5-dichloro-4-fluorophenyl)-4,4,4-trifluorobut-1-en-1-yl)-N-(2-oxo-2-((2,2,2-trifluoroethyl)amino)ethyl)benzamide] | A (50-100)
CCc1cc(/C=C/C(c2cc(Cl)c(F)c(Cl)c2)C(F)(F)F)ccc1C(=O)NCC(=O)NCC(F)(F)F (stereo not drawn) [AC80] | A (50-100)
Cc1cc(/C=C/C(c2cc(Cl)cc(Cl)c2)C(F)(F)F)ccc1C(=O)NCC(=O)NC1CS(=O)(=O)C1 (stereo not drawn) [AC81] | A (50-100)
O=C(NC1CS(=O)(=O)C1)c1ccc(/C=C/C(c2cc(Cl)cc(Cl)c2)C(F)(F)F)cc1F (stereo not drawn) [AC83, (E)-4-(3-(3,5-Dichlorophenyl)-4,4,4-trifluorobut-1-en-1-yl)-N-(1,1-dioxidothietan-3-yl)-2-fluorobenzamide] | A (50-100)
O=C(NC1CS(=O)(=O)C1)c1ccc(/C=C/C(c2cc(Cl)c(F)c(Cl)c2)C(F)(F)F)cc1F (stereo not drawn) [AC84] | A (50-100)
COc1cc(/C=C/C(c2cc(Cl)c(F)c(Cl)c2)C(F)(F)F)ccc1C(=O)NC1CS(=O)(=O)C1 (stereo not drawn) [AC85] | A (50-100)
CCc1cc(/C=C/C(c2cc(Cl)c(F)c(Cl)c2)C(F)(F)F)ccc1C(=O)NC1CS(=O)(=O)C1 (stereo not drawn) [AC86] | A (50-100)
O=C(NC1C[S+]([O-])C1)c1ccc(/C=C/C(c2cc(Cl)c(F)c(Cl)c2)C(F)(F)F)cc1F (stereo not drawn) [AC87] | A (50-100)
